From patent publication US20120003308A1, “Pharmaceutical Composition Comprising Aliskiren” (priority 2009, published 2012)

Test: Bioequivalence study of fixed combination versus free combination, single dose, crossover
Design: species or system human
Settings: in vivo
Description: Pharmacokinetic measurements were performed on blood collected from each subject. […] The PK parameters were determined in plasma, using non-compartmental methods.

COCCCOc1cc(C[C@@H](C[C@H](N)[C@@H](O)C[C@H](C(=O)NCC(C)(C)C(N)=O)C(C)C)C(C)C)ccc1OC [Aliskiren, 2(S),4(S),5(S),7(S)—N-(3-amino-2,2-dimethyl-3-oxopropyl)-2,7-di(1-methylethyl)-4-hydroxy-5-amino-8-[4-methoxy-3-(3-methoxy-propoxy)phenyl]-octanamide]
intra-subject coefficient of variation (CV) for AUC0-inf of aliskiren: 33.19%
intra-subject coefficient of variation (CV) for AUC0-tlast of aliskiren: 33.98%
intra-subject coefficient of variation (CV) for Cmax of aliskiren: 51.90%

CCCCC(=O)N(Cc1ccc(-c2ccccc2-c2nnn[nH]2)cc1)[C@H](C(=O)O)C(C)C [Valsartan]
intra-subject CV for AUC0-flast of valsartan: 28.56%
intra-subject CV for AUC0-inf of valsartan: 28.33%
intra-subject CV for Cmax of valsartan: 40.37%
